Source: patent US11198761B2, “Biodegradable polyionenes” (AGENCY FOR SCIENCE, TECHNOLOGY AND RESEARCH, priority 2017, dated 2021)

Assays:
[1] = system: rat red blood cells (rRBCs); experiment: Hemolysis assay; format: cell-based; conditions: Gemini-surfactant series S; 1 hour, 37° C.
Description: Freshly obtained rat red blood cells (rRBC) from the Animal Handling Unit of Biomedical Research Center (Singapore) was used to test the hemolytic activity of the polymers and Gemini-surfactants. The rRBC was diluted to 4% v/v with phosphate-buffered saline (PBS) and added to an equal volume of 0.2% v/v Triton-X solution. A microplate reader was used to measure the optical density (O.D.) reading to make sure the value is between 0.5 and 0.6. An equal volume of different polymer or Gemini-surfactant concentrations was added to the diluted blood and incubated for 1 hour at 37° C. The samples were centrifuged at 1000 g at 4° C. for 5 minutes and 100 μL of the supernatant was collected and transferred to a 96-well tissue culture plate. There were 4 replicates for each concentration. Haemoglobin release was measured using the microplate reader at 576 nm. rRBCs treated with PBS were used as the […] control, while those treated with 0.2% v/v Triton-X was used as the […] control.
Percentage of hemolysis was calculated as follows: Hemolysis (%)═[(O.D.576 nm of the treated sample−O.D.576 nm of negative control)/(O.D.576 nm of positive control−O.D.576 nm of negative control)]×100%
HC50 was taken as the polymer concentration at which the polymer causes 50% hemolysis.

[2] = system: C. albicans (ATCC No 10231); experiment: MIC, broth microdilution; format: cell-based, Candida albicans; conditions: Gemini-surfactant series S; 42 hours, room temperature
Description: (§1) Bacterial and fungal samples were inoculated according to ATCC's requirement. Briefly, bacteria and fungi were grown in Mueller Hinton Broth (MHB) at 37° C. and room temperature, respectively overnight to allow the microbes to enter the log growth phase with constant 100 rpm shaking. Minimum inhibitory concentration (MIC) of the polymers was determined using the broth microdilution method. 100 μL of 20% v/v water-containing broth with various polymer or Gemini-surfactant concentrations was first added into each well of a 96-well tissue culture plate. The inoculated overnight microbe solution was first diluted to an optical density (O.D.) reading of 0.07 using a microplate reader (TECAN, Switzerland). This will correspond to 3×10^8 CFU/mL based on the McFarland 1 standard solution (CFU=colony forming units). The microbe solution was further diluted 1000 times to achieve a final 3×10^5 CFU/mL. To each well, an equal volume of diluted microbes solution was added and incubated at 37° C. for 18 hours for bacteria samples and at room temperature for 42 hours for fungi samples. There were 6 replicates for each concentration tested, with negative control being microbes added into broth containing 20% v/v deionized water. MIC was taken as the lowest concentration at which there was no observable microbe growth when measured by the microplate reader.

[3] = system: P. aeruginosa (ATCC No. 9027); experiment: MIC, broth microdilution; format: cell-based, Pseudomonas aeruginosa; conditions: Gemini-surfactant series S; 18 hours, 37° C.
Description: as §1

[4] = system: S. aureus (ATCC No. 6538); experiment: MIC, broth microdilution; format: cell-based, Staphylococcus aureus; conditions: Gemini-surfactant series S; 18 hours, 37° C.
Description: as §1

[5] = system: E. coli (ATCC No. 25922); experiment: MIC, broth microdilution; format: cell-based, Escherichia coli; conditions: Gemini-surfactant series S; 18 hours, 37° C.
Description: as §1

[6] = system: S. aureus biofilms; experiment: Biofilm biomass assay (safranin O); format: cell-based, Staphylococcus aureus; conditions: 18 hours treatment
Description: (§2) The bacteria stock was diluted in Mueller Hinton Broth (MHB) to get an optical density (OD) reading of 0.07 at 600 nm. 48 wells of a 96 flat-well plate were plated with 100 μL of bacteria suspension each. The plate was then incubated at 37° C. Every day over the next 7 days, MHB was carefully removed from the plate so as not to disturb the biofilm at the bottom of the well, and replaced with 100 μL of fresh MHB to each well.
(§3) After the biofilm was cultured, at the end of 7 days, MHB was removed from the wells. The biofilms were washed carefully with PBS 3 times to remove planktonic cells. The surfactant was weighed in a micro-centrifuge tube, and the weighed sample was diluted to 10000 mg L^−1 using distilled water. Serial dilution was conducted to obtain surfactant solutions of concentrations 100 mg L^−1, 70 mg L^−1, 50 mg L^−1, 35 mg L^−1, 25 mg L^−1, 20 mg L^−1, and 10 mg L^−1. The solvent was 20% distilled water and 80% MHB for each solution. The control was 20% distilled water and 80% MHB without surfactant. The surfactant solutions of different concentrations were added to the wells, 100 μL into each, with 6 replicates for each concentration. The plate was incubated at 37° C. for 18 hours. […] At the end of the incubation period, the optical density (OD) reading of the plate was taken at 550 nm.

[7] = system: S. aureus biofilms; experiment: XTT assay for cell viability of biofilms; format: cell-based, Staphylococcus aureus; conditions: 18 hours treatment
Description: as §2
(§4) After the biofilm was cultured, at the end of 7 days, MHB was removed from the wells. The biofilms were washed carefully with PBS 3 times to remove planktonic cells. The surfactant was weighed in a micro-centrifuge tube, and the weighed sample was diluted to 10,000 mg L^−1 using distilled water. Serial dilution was conducted to obtain surfactant solutions having concentrations of 100 mg L^−1, 70 mg L^−1, 50 mg L^−1, 35 mg L^−1, 25 mg L^−1, 20 mg L^−1, and 10 mg L^−1. The solvent was 20% distilled water and 80% MHB for each solution. The control was 20% distilled water and 80% MHB without surfactant. The surfactant solutions of different concentrations were added to the wells, 100 μL into each, with 6 replicates for each concentration. The plate was then incubated at 37° C. for 18 hours. […] At the end of the incubation period, the optical density (OD) reading of the plate was taken at 490 nm.

[8] = system: E. coli biofilms; experiment: XTT assay for cell viability of biofilms; format: cell-based, Escherichia coli; conditions: 18 hours treatment
Description: as §2, §4

[9] = system: S. aureus, E. coli, P. aeruginosa, C. albicans; experiment: Killing efficiency test (CFU on agar after MIC testing); format: cell-based; conditions: at MIC and 2×MIC, all the microbes
Description: After MIC testing, all solutions from the control, ½MIC, MIC and 2MIC wells were collected and subjected to a series of ten-fold dilution. 20 μL of the diluted microbe solution was streaked onto pre-casted agar plates using LB+1.5% agar from the first Base. Agar plates with bacteria samples were incubated at 37° C. for 18 hours while those with fungi samples were incubated for 42 hours at room temperature before the CFUs were counted.

[10] = system: E. coli biofilms; experiment: Biofilm biomass assay (safranin O); format: cell-based, Escherichia coli; conditions: 18 hours treatment
Description: as §2, §3

[11] = system: S. aureus, E. coli, P. aeruginosa, C. albicans; experiment: Killing kinetics, several strains together; format: cell-based
Description: 600 μL of 3×10^5 CFU/mL microbial suspension was added to each concentration of the polymer. […] 20 μL of the diluted microbial suspension was then plated onto agar plates and incubated for 24 hours and 42 hours at 37° C. and room temperature for bacteria and fungi respectively, then manually counted for CFU.

SMILES: CCCCCCCCCC[N+](C)(C)Cc1ccc(C(=O)NCCCCCCNC(=O)c2ccc(C[N+](C)(C)CCCCCCCCCC)cc2)cc1.[Cl-].[Cl-] [S-3g]
- Hemolysis, HC50 [1]: 125-250 ppm
- MIC CA [2]: 2 ppm
- MIC PA [3]: 8 ppm
- MIC SA [4]: 1 ppm
- MIC EC [5]: 1 ppm
- biomass of biofilm [6]: reduced in a dose dependent manner
- biofilm cell viability [7]: reduced in a dose dependent manner
- biofilm cell viability [8]: reduced in a dose dependent manner
- reduction in the colony forming units (CFU) [9]: ≥ 99.9%
- biomass of biofilm [10]: reduced in a dose dependent manner
- killing of all four strains of microbes ([11]; 16 and 32×MIC, 2 minutes): completely killed
- concentration needed to completely eradicate the microbes ([11]; 30 seconds): 64 ×MIC

SMILES: CCCCCCCC[N+](C)(C)Cc1ccc(C(=O)NCCOCCOCCNC(=O)c2ccc(C[N+](C)(C)CCCCCCCC)cc2)cc1.[Cl-].[Cl-] [S-5f]
- Hemolysis, HC50 [1]: >2000 ppm
- MIC CA [2]: 125 ppm
- MIC PA [3]: >500 ppm
- MIC SA [4]: 31 ppm
- MIC EC [5]: 250 ppm

SMILES: CCCCCCCCCC[N+](C)(C)Cc1ccc(C(=O)NCCOCCOCCNC(=O)c2ccc(C[N+](C)(C)CCCCCCCCCC)cc2)cc1.[Cl-].[Cl-] [S-5g]
- Hemolysis, HC50 [1]: 125-250 ppm
- MIC CA [2]: 2 ppm
- MIC PA [3]: 63 ppm
- MIC SA [4]: 2 ppm
- MIC EC [5]: 4 ppm

SMILES: CCCCCCCCCCCC[N+](C)(C)Cc1ccc(C(=O)NCCOCCOCCNC(=O)c2ccc(C[N+](C)(C)CCCCCCCCCCCC)cc2)cc1.[Cl-].[Cl-] [S-5h]
- Hemolysis, HC50 [1]: 16-31 ppm
- MIC CA [2]: 1 ppm
- MIC PA [3]: 16 ppm
- MIC SA [4]: 2 ppm
- MIC EC [5]: 4 ppm

SMILES: CCCCCCCC[N+](C)(C)Cc1ccc(C(=O)NCCCOCCOCCOCCCNC(=O)c2ccc(C[N+](C)(C)CCCCCCCC)cc2)cc1.[Cl-].[Cl-] [S-6f]
- Hemolysis, HC50 [1]: >2000 ppm
- MIC CA [2]: 16 ppm
- MIC PA [3]: >500 ppm
- MIC SA [4]: 16 ppm
- MIC EC [5]: 125 ppm

SMILES: CCCCCCCCCC[N+](C)(C)Cc1ccc(C(=O)NCCCOCCOCCOCCCNC(=O)c2ccc(C[N+](C)(C)CCCCCCCCCC)cc2)cc1.[Cl-].[Cl-] [S-6g]
- Hemolysis, HC50 [1]: 250-500 ppm
- MIC CA [2]: 4 ppm
- MIC PA [3]: 63 ppm
- MIC SA [4]: 2 ppm
- MIC EC [5]: 4 ppm

SMILES: CCCCCCCCCCCC[N+](C)(C)Cc1ccc(C(=O)NCCCOCCOCCOCCCNC(=O)c2ccc(C[N+](C)(C)CCCCCCCCCCCC)cc2)cc1.[Cl-].[Cl-] [S-6h]
- Hemolysis, HC50 [1]: 31-63 ppm
- MIC CA [2]: 4 ppm
- MIC PA [3]: 8 ppm
- MIC SA [4]: 1 ppm
- MIC EC [5]: 2 ppm

SMILES: CCCCCCCCCC[N+](C)(C)Cc1ccc(C(=O)OCCCOC(=O)c2ccc(C[N+](C)(C)CCCCCCCCCC)cc2)cc1.[Cl-].[Cl-] [S-7g]
- Hemolysis, HC50 [1]: 63-125 ppm
- MIC CA [2]: 1 ppm
- MIC PA [3]: 8 ppm
- MIC SA [4]: 1 ppm
- MIC EC [5]: 1 ppm

SMILES: CCCCCCCCCC[N+](C)(C)Cc1ccc(C(=O)OCCCCCCOC(=O)c2ccc(C[N+](C)(C)CCCCCCCCCC)cc2)cc1.[Cl-].[Cl-] [S-9g]
- Hemolysis, HC50 [1]: 125-250 ppm
- MIC CA [2]: 1 ppm
- MIC PA [3]: 8 ppm
- MIC SA [4]: 1 ppm
- MIC EC [5]: 2 ppm

SMILES: CCCCCCCCCC[N+](C)(C)Cc1ccc(C(=O)OCCCCCCCCCCCCOC(=O)c2ccc(C[N+](C)(C)CCCCCCCCCC)cc2)cc1.[Cl-].[Cl-] [S-10g]
- Hemolysis, HC50 [1]: 63-125 ppm
- MIC CA [2]: 16 ppm
- MIC PA [3]: 500 ppm
- MIC SA [4]: 16 ppm
- MIC EC [5]: 500 ppm

SMILES: CCCCCCCCCC[N+](C)(C)Cc1ccc(C(=O)OCc2ccc(COC(=O)c3ccc(C[N+](C)(C)CCCCCCCCCC)cc3)cc2)cc1.[Cl-].[Cl-] [S-12g]
- Hemolysis, HC50 [1]: 125-250 ppm
- MIC CA [2]: 2 ppm
- MIC PA [3]: 8 ppm
- MIC SA [4]: 1 ppm
- MIC EC [5]: 2 ppm

SMILES: CCCCCCCCCC[N+](C)(C)Cc1ccc(C(=O)NCCCCCCOC(=O)c2ccc(C[N+](C)(C)CCCCCCCCCC)cc2)cc1.[Cl-].[Cl-] [S-13g]
- Hemolysis, HC50 [1]: 63-125 ppm
- MIC CA [2]: 1 ppm
- MIC PA [3]: 4 ppm
- MIC SA [4]: 1 ppm
- MIC EC [5]: 1 ppm
